From patent US20200306222A1, “Dosing Regimen of Siponimod” (NOVARTIS AG, priority 2017, published 2020)

Experiments:
[1] = general pharmacokinetics/pharmacodynamics of siponimod (lymphocyte counts, half-life, brain penetration); format: in vivo; details: in vivo
Method: (§1) Siponimod is a second generation S1P receptor modulator that reduces peripheral lymphocyte counts approximately 4-6 hours (h) after the first dose. […] Siponimod's mode of action is believed to include S1P1-mediated prevention of effector lymphocyte recirculation from lymphatic tissue to sites of inflammation, such as the central nervous system (CNS). In addition, there may be direct beneficial effects in the CNS mediated by S1P1 and/or S1P5. […] Thus, siponimod may display additional beneficial activities in the CNS.

[2] = tested on: peripheral lymphocyte counts; experiment: as above; format: in vivo
Method: as §1

[3] = clinical study of siponimod pharmacokinetics in CYP2C9 poor metabolizers; format: in vivo, human
Excerpt: In addition to the previously described benefits, the dosing regimen of the present disclosure has also the advantage to highly reduce the additional risks run by the CYP2C9 poor metabolizer.

[4] = i.v. (bolus) cardiovascular safety studies; format: in vivo, guinea pig, rat and rabbit; details: similar to the effects by oral route
Excerpt: (§2) The safety of the i.v. route in humans was supported by a local tolerance study in rabbit and cardiovascular safety studies in guinea pig, rat and rabbit using i.v. (bolus) route.

[5] = multiple-dose titration clinical study in healthy subjects, daily chronotropic effects; format: in vivo, human
Method: S1P receptor modulators, as mentioned above, are known to cause dose dependent transient decrease in heart rate within 2-3 hours of drug intake (Legangneux et al. 2012, Hoch et al. 2014). In order to evaluate on how to best mitigate the bradyarrhythmic risk of siponimod, a multiple-dose titration clinical study in healthy subjects was run.
The primary objective of this study was to measure the daily chronotropic effects of two siponimod dose-titration regimens (from 0.25 mg to 10 mg; Dose Titration (DT) 1# and 2#, respectively) compared to daily chronotropic effects of oral siponimod 10 mg (fixed dose, once daily) and placebo over 12 days. The heart rate (HR) changes have been compared between subjects exposed to 10 mg siponimod once daily (QD) with or without 2 different up-titration schemes. The titration scheme of this study was: • DT 1#: Day 1: 0.25 mg; Day 2: 0.25 mg; Day 3: 0.25 mg; Day 4: 0.5 mg; Day 5: 1.0 mg; Day 6: 2.0 mg; Day 7: 4.0 mg; Day 8: 8.0 mg and from Day 9 to Day 12: 10.0 mg daily. • DT 2#: Day 1: 0.25 mg; Day 2: 0.25 mg; Day 3: 0.5 mg; Day 4: 0.75 mg; Day 5: 1.25 mg; Day 6: 2.0 mg; Day 7: 3.0 mg; Day 8: 5.0 mg; from Day 9 to Day 12: 10.0 mg daily.
This effect was maintained until end of treatment on Day 12. […] It was then concluded that both titration regimens effectively attenuated the initial bradycardia observed on Day 1 of treatment with siponimod 10 mg daily fixed-dose.

[6] = multiple ascending dosing study (MAD study) in healthy subjects, adverse events; format: in vivo, human; details: maximum investigated multiple dose of 20 mg, over 28 days
Method: (§3) In another study in healthy subjects siponimod was administered in multiple doses, i.e. 0.3, 1, 2.5, 10 and 20 mg, over 28 days (multiple ascending dosing study, MAD study).

[7] = i.v. versus oral absolute bioavailability study in healthy subjects (CBAF312A2126), PK and PD; format: in vivo, human
Method: A comparison of bradyarrhythmic effects (HR, AVB, SP) of a 1 mg oral dose from previous studies and a 1 mg/day i.v. dose infused over 24 h in healthy subjects supported the hypothesis that such effects are related to the slope of the concentration-time curve.
In said study with siponimod administered intravenously, PK and PD were determined. […] This finding was consistent with previous oral administrations of 0.25 mg (starting dose of the oral initial period dosing regimen).
as §2

CYP2C9, CYP3A4 = details: humans; cited from earlier work
[8] = phase II dose finding study in relapsing-remitting multiple sclerosis (CBAF312A2201); format: in vivo, human; details: RRMS patients
Method: In a phase II dose finding study of siponimod in patients with relapsing-remitting multiple sclerosis (CBAF312A2201) safety, tolerability and efficacy on magnetic resonance imaging (MRI) brain lesion parameters were evaluated. The dose response curve for the MRI-based efficacy of siponimod given orally once daily compared with placebo was determined.
The dose-response curve as defined by the primary endpoint, favored the upper part of this range, i.e. a dose in the range of siponimod 2 mg, since efficacy seemed to decrease with lower doses. Siponimod achieved positive results in a clinical trial for the treatment of RRMS patients (Selmaj et al., Lancet Neurol, 2013, 12, 756-767) and is currently being investigated in an ongoing phase III study (EXPAND) in patients with SPMS. The dose of 2 mg of siponimod was the chosen dose for this follow up phase III study.

[9] = randomized placebo-controlled study of siponimod in intracerebral hemorrhage (ICH) patients; format: in vivo, human; details: compared to placebo
Excerpt: The clinical study investigates the initial efficacy and safety of siponimod administered on top of standard-of-care compared to placebo in patients with intracerebral hemorrhage (ICH). This is a randomized, doubled-blinded, placebo-controlled, parallel group study of siponimod on top of standard-of-care for ICH, consisting of 3 epochs: Screening/Baseline, Treatment, and Follow-Up (see FIG. 1).
Patients fulfilling all eligibility criteria are randomly allocated to one of two treatment groups in a ratio of 1:1. […] These patients continue to be followed for the remainder of the assessment schedule (Table 3). i.v. Dose Titration
The siponimod i.v. dosing regimen is as follows: • Day 1: 0.25 mg over 6 hours (×2), then 0.5 mg over 6 hours, then 0.75 mg over 6 hours for a total Day 1 dose of 1.75 mg • Day 2: 1.25 mg over 6 hours, then 2 mg over 6 hours, then 2.5 mg over 6 hours (×2) for a total Day 2 dose of 8.25 mg • Days 3 through Day 7: 2.5 mg over 6 hours (×4) for a total daily dose of 10 mg. • If patient can swallow then the administration from Day 8 to Day 14 is oral.
This is a randomized, doubled-blinded, placebo-controlled, parallel group study of siponimod on top of standard-of-care for ICH, consisting of 3 epochs: Screening/Baseline, Treatment, and Follow-Up (see FIG. 1).
Patients are assigned to one of the following 2 treatment arms in a ratio of 1:1. • Study treatments are defined as: • Siponimod • Day 1: i.v. 0.25 mg over 6 hours (×2), then 0.5 mg over 6 hours, then 0.75 mg over 6 hours for a total Day 1 dose of 1.75 mg • Day 2: i.v. 1.25 mg over 6 hours, then 2 mg over 6 hours, then 2.5 mg over 6 hours (×2) for a total Day 2 dose of 8.25 mg • Days 3 through 7: i.v. 2.5 mg over 6 hours (×4) for a total daily dose of 10 mg • Days 8 through 14; 10 mg p.o. QD

[10] = tested on: Absolute Lymphocyte Count (ALC); experiment: multiple ascending dosing study in healthy volunteers, decline of Absolute Lymphocyte Count; format: in vivo, human
Method: as §3

[11] = siponimod single dose study (SAD study) in healthy volunteers; format: in vivo; details: healthy subjects

## CCc1cc(/C(C)=N/OCc2ccc(C3CCCCC3)c(C(F)(F)F)c2)ccc1CN1CC(C(=O)O)C1 [siponimod, 1-{4-[(1E)-N-{[4-cyclohexyl-3-(trifluoromethyl)benzyl]oxy}ethanimidoyl]-2-ethylbenzyl}-3-azetidine carboxylic acid]
[1]
  half-life: ~30 h
[2]; after the first dose
  time to reduction of peripheral lymphocyte counts: 4 to 6 h (h)
[2]; after treatment withdrawal
  recovery of the baseline lymphocyte counts: within a week
[2]; in vivo
  blood brain barrier crossing: readily crosses the blood brain barrier
[3]; poor and extensive metabolizers
  Tmax in poor versus extensive metabolizers: comparable
[3]; poor metabolizers
  Cmax in poor versus extensive metabolizers: only slightly greater
[3]; poor metabolizers (CYP2C9*2*3 and CYP2C9*3*3 genotypes)
  AUC fold versus extensive metabolizers (CYP2C9*1*1): approximately 2 fold
[4]
  cardiovascular effects: Cmax-related transient cardiovascular effects
[5]; Day 1, either titration regimen
  reduction in heart rate vs. placebo: no statistically significant reduction in heart rate vs. placebo
[5]; Days 3 to 7, DT 1# and DT 2#
  reduction in HR: minor reductions in HR
[5]; by Day 9 until Day 12, both titration regimens
  heart rates versus placebo: comparable to placebo
[5]; dose titration regimens DT 1# and DT 2# (0.25 mg to 10 mg), oral, 12 days
  clinically significant bradycardia or AV conduction effects: Neither DT 1# nor DT 2# resulted in clinically significant bradycardia or AV conduction effects
[5]; non-titration regimen, 10 mg fixed dose once daily, throughout the study
  heart rates versus placebo: considerable separation from placebo
[5]; starting dose of 0.25 mg of the 2 DT regimens
  bradyarrhythmia: not associated with bradyarrhythmia
[6]
  only relevant adverse event: symptomatic bradycardia
[7]; human, in vivo
  pharmacokinetics (PK) linearity: dose linear and time-independent pharmacokinetics
[7]; human, in vivo, 0.25 mg, oral, after dosing, read-out: median oral Tmax
  Tmax: 8 h
[7]; i.v. 0.25 mg over 3 hour and 1 mg over 24 hours
  magnitude of PD (ALC) effects %Emax, i.v. versus oral: comparable to the effects after oral doses at the same dose levels
[7]; i.v. infusion 0.25 mg over 3 hours and 1 mg over 24 hours
  median i.v. Tmax: at the end of the 3 hour and 24 hour infusions
[7]; i.v. infusion 0.25 mg over 3 hours and 1 mg over 24 hours (4×0.25 mg/6 hours)
  cardiac safety profile: excellent cardiac safety profile
[7]; oral versus i.v.
  geometric mean oral Cmax relative to mean i.v. Cmax (lower): -48%
CYP2C9, CYP3A4
  metabolizing enzymes: mainly by CYP2C9, followed by CYP3A4
[8]; 1.25 mg to 2 mg dose range
  MRI-based efficacy: close to maximal efficacy
  safety profile: good safety profile
[8]; 10 mg orally once daily
  MRI-based efficacy: little additional efficacy compared to 2 mg
  safety profile: worse safety profile
[9]; Day 90 after ICH, 7 days i.v. with titration followed by 7 days p.o.
  global functioning, modified Rankin Scale (mRS) score: improves global functioning
[9]; between 24 hours and 14 days after initiation of treatment
  development of perihematomal edema (PHE): decreases the development of perihematomal edema (PHE)
[9]; two week treatment
  functional mobility: improves functional mobility of the affected body parts
[10]; 0.3 mg dose group
  % Emax0-12 h from Day 1 pre-dose: 41.9%
  % Emax0-12 h from time-matched Day −1: 47.8%
[10]; 1 mg dose group
  % Emax0-12 h from Day 1 pre-dose: 71.3%
  % Emax0-12 h from time-matched Day −1: 73.8%
[10]; 2.5 mg
  ALC decrease, chronic response: ~70%
[10]; 2.5 mg dose group
  % Emax0-12 h from Day 1 pre-dose: 66.9%
  % Emax0-12 h from time-matched Day −1: 67.5%
[10]; 10 mg
  ALC decrease, chronic response (plateau): about 80%
[10]; 10 mg dose group
  % Emax0-12 h from Day 1 pre-dose: 83.7%
  % Emax0-12 h from time-matched Day −1: 86.1%
[10]; 20 mg dose group
  % Emax0-12 h from Day 1 pre-dose: 84.8%
  % Emax0-12 h from time-matched Day −1: 86.5%
[10]; Day 1 of treatment, between 0.3 mg and 10 mg dose
  acute ALC response: dose-dependent decline of ALC
[11]; 25 mg single dose
  safety and tolerability: favorable safety and tolerability profile
[11]; single dose
  single maximum tolerated dose (single MTD): 25 mg
